From ChEMBL document CHEMBL5380872, “Development of a Potent Nurr1 Agonist Tool for In Vivo Applications” (J Med Chem, 2023)

Experiments:
[1] = rat, in vivo, po, 5 mg/kg, 8 h
[2] = target: Dihydroorotate dehydrogenase (quinone), mitochondrial (Rattus norvegicus, UniProt Q63707)
Description: Inhibition of rat recombinant DHODH by colorimetric assay

[3] = target: T1, Nuclear receptor subfamily 4immunitygroup A member 1 (Homo sapiens, UniProt P22736); assay: cell-based
Description: (§1) Agonist activity at Nur77 (unknown origin) by Gal4 hybrid reporter gene assay

[4] = in vivo; details: Sprague-Dawley, rat, po, 5 mg/kg
[5] = target: T2, Bile acid receptor (Homo sapiens, UniProt Q96RI1)
T2 sequence (Q96RI1 whole entry): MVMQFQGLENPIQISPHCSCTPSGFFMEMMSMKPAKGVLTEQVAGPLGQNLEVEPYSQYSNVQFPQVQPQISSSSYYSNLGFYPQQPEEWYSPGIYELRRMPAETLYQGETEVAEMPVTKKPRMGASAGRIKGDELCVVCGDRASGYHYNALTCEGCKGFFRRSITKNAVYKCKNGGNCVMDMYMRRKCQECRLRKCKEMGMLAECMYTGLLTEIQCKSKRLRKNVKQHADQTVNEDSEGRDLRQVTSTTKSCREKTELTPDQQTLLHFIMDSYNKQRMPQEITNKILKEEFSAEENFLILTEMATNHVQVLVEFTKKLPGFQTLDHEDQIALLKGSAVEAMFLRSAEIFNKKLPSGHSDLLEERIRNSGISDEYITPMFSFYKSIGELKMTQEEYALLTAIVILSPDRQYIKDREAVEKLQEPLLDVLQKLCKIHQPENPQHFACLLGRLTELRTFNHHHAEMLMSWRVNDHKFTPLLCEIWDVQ
Description: Agonist activity at human FXR-LBD transfected in HEK293T cells co-transfected with pFR-Luc/pRL-SV40 assessed as transfection efficiency by measuring luciferase activity measured after 16 hrs by Gal4 hybrid reporter gene assay

[6] = target: Nuclear receptor subfamily 4 group A member 3 (Homo sapiens, UniProt Q92570)
Description: Agonist activity at NOR1 (unknown origin) by Gal4 hybrid reporter gene assay

[7] = target: T1, Nuclear receptor subfamily 4immunitygroup A member 1
Description: as §1

[8] = target: T3, Retinoic acid receptor alpha (Homo sapiens, UniProt P10276)
T3 sequence (P10276 whole entry): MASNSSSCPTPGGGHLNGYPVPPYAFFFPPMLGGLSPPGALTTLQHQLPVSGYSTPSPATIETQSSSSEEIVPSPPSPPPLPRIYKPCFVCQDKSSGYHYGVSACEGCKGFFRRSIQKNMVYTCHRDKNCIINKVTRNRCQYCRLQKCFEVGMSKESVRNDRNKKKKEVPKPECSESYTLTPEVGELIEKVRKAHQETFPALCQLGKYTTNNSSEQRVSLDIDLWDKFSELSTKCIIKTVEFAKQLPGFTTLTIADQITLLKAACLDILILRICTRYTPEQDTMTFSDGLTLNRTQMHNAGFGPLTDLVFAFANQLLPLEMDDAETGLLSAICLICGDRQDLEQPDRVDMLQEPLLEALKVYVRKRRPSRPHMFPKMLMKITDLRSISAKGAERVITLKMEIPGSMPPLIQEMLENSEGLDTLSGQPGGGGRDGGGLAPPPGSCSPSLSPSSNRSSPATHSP
Description: Agonist activity at human RARalpha-LBD transfected in HEK293T cells co-transfected with pFR-Luc/pRL-SV40 assessed as transfection efficiency by measuring luciferase activity measured after 16 hrs by Gal4 hybrid reporter gene assay

[9] = target: T4, Thyroid hormone receptor alpha (Homo sapiens, UniProt P10827)
T4 sequence (P10827 whole entry): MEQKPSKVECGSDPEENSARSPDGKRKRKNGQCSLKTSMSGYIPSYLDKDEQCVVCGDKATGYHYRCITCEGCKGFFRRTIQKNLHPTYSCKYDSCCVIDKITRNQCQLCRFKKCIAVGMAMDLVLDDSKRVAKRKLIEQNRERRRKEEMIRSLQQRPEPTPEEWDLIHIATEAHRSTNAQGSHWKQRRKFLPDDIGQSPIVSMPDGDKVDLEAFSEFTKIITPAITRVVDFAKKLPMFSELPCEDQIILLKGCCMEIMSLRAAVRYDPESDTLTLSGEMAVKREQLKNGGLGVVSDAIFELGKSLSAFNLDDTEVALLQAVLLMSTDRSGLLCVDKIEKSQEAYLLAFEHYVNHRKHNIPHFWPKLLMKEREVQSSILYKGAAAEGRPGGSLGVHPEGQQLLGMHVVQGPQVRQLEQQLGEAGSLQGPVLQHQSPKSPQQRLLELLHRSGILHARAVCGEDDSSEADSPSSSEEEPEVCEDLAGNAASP
Description: Agonist activity at human THRalpha-LBD transfected in HEK293T cells co-transfected with pFR-Luc/pRL-SV40 assessed as transfection efficiency by measuring luciferase activity measured after 16 hrs by Gal4 hybrid reporter gene assay

[10] = target: T5, Peroxisome proliferator-activated receptor alpha (Homo sapiens, UniProt Q07869)
T5 sequence (Q07869 whole entry): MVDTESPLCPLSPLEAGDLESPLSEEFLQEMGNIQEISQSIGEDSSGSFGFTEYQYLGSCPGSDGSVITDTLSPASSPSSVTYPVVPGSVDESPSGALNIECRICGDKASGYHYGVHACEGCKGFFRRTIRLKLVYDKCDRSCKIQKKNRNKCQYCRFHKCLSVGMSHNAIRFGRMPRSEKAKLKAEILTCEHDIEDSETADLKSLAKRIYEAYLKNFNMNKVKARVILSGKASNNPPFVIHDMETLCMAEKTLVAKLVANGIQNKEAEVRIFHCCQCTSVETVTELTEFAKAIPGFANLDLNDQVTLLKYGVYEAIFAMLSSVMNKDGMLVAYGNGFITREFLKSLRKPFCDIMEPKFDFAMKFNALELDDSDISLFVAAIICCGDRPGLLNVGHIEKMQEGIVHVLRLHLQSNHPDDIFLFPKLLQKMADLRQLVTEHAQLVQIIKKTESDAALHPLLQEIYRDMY
Description: Agonist activity at human PPARalpha-LBD transfected in HEK293T cells co-transfected with pFR-Luc/pRL-SV40 assessed as transfection efficiency by measuring luciferase activity measured after 16 hrs by Gal4 hybrid reporter gene assay

[11] = target: T6, Vitamin D3 receptor (Homo sapiens, UniProt P11473)
T6 sequence (P11473 whole entry): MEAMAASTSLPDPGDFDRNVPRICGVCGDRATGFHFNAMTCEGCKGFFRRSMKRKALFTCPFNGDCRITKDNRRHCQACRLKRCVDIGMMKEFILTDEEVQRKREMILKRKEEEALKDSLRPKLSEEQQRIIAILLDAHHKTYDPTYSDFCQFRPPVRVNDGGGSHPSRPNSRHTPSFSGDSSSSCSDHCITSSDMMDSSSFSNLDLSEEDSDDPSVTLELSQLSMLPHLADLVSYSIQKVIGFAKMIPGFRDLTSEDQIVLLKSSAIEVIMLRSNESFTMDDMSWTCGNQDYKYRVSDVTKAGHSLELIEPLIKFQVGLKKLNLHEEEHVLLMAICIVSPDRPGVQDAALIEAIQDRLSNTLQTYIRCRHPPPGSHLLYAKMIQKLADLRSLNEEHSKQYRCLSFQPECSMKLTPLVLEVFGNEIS
Description: Agonist activity at human VDR-LBD transfected in HEK293T cells co-transfected with pFR-Luc/pRL-SV40 assessed as transfection efficiency by measuring luciferase activity measured after 16 hrs by Gal4 hybrid reporter gene assay

[12] = target: T7, Retinoic acid receptor RXR-alpha (Homo sapiens, UniProt P19793)
T7 sequence (P19793 whole entry): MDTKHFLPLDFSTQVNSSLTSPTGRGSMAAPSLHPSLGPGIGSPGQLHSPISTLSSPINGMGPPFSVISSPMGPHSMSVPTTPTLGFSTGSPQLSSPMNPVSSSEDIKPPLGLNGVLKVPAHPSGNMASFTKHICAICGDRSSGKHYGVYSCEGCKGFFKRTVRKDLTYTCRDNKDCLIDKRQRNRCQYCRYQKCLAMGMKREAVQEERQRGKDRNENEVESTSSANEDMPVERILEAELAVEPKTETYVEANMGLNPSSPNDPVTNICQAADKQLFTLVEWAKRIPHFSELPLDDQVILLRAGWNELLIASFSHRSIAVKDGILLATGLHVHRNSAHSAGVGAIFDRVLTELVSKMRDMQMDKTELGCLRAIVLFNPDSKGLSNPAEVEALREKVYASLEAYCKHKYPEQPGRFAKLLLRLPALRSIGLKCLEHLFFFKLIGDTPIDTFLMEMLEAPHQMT
Description: Agonist activity at human RXRalpha-LBD transfected in HEK293T cells co-transfected with pFR-Luc/pRL-SV40 assessed as transfection efficiency by measuring luciferase activity measured after 16 hrs by Gal4 hybrid reporter gene assay

[13] = target: T8, Peroxisome proliferator-activated receptor gamma (Homo sapiens, UniProt P37231)
T8 sequence (P37231 whole entry): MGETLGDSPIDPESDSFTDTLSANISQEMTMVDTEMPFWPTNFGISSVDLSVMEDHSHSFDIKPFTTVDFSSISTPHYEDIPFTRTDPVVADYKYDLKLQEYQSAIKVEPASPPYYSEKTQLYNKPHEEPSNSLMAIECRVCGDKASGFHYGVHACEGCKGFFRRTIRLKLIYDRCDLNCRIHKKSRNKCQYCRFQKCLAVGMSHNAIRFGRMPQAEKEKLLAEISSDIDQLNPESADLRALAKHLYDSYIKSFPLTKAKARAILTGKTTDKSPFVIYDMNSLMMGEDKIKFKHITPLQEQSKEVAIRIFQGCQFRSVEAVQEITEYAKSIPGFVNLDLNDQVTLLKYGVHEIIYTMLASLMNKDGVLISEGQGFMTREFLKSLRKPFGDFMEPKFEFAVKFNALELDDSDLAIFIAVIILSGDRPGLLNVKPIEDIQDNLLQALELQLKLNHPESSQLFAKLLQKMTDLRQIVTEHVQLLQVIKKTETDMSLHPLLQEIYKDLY
Description: Agonist activity at human PPARgamma-LBD transfected in HEK293T cells co-transfected with pFR-Luc/pRL-SV40 assessed as transfection efficiency by measuring luciferase activity measured after 16 hrs by Gal4 hybrid reporter gene assay

T1 sequence (P22736 whole entry): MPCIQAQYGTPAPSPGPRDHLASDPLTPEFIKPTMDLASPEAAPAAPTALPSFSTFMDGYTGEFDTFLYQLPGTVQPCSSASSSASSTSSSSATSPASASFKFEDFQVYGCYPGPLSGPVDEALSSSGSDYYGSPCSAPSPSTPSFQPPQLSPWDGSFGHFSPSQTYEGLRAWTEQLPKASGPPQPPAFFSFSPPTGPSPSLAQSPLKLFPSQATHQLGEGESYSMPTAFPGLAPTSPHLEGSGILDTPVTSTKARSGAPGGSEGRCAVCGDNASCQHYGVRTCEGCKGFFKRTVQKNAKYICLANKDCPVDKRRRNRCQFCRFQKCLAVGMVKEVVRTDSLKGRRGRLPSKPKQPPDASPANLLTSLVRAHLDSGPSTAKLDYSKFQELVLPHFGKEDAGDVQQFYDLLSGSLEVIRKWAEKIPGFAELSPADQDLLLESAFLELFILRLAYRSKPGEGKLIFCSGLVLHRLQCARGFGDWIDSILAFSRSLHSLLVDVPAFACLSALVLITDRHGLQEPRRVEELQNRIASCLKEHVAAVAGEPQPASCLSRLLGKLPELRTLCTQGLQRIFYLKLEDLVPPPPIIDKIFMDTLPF
Nuclear receptor subfamily 4 group A member 3, sequence (Q92570 whole entry): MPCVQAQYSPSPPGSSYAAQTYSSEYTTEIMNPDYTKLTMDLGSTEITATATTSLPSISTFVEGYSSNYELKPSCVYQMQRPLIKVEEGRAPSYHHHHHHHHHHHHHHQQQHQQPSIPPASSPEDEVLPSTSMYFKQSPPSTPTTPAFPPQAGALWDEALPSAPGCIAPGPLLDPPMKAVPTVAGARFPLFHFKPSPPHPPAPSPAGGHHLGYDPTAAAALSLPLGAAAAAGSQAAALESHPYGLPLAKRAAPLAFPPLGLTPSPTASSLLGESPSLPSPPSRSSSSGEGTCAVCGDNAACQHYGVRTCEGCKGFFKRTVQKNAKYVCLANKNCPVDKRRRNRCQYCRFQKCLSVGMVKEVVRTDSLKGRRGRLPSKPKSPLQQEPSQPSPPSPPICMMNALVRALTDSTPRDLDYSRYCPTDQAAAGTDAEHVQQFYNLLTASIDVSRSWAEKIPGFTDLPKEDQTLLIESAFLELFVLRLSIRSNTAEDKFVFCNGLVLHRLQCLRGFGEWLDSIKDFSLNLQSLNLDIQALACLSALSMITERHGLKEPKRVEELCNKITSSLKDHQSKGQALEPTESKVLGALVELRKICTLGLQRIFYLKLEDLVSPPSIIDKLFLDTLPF
Dihydroorotate dehydrogenase (quinone), mitochondrial, sequence (Q63707 whole entry): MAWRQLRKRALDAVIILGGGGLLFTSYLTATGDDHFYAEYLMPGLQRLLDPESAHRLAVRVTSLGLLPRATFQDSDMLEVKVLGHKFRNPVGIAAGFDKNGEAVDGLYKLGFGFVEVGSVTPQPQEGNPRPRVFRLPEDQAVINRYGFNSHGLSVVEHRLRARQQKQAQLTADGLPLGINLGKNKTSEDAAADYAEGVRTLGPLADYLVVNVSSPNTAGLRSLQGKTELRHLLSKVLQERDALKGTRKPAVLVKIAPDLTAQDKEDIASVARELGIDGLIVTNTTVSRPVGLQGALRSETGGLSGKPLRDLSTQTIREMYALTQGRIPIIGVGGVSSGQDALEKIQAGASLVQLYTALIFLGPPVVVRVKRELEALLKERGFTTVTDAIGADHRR

| SMILES | Cmax [1] [µM] | IC50 [2] [µM] | EC50 [3] [µM] | AUC at 8 h [4] [µM·h] | EC50 [5] [µM] | EC50 [6] [µM] | EC50 [7] [µM] | EC50 [8] [µM] | EC50 [9] [µM] | EC50 [10] [µM] | EC50 [11] [µM] | EC50 [12] [µM] | EC50 [13] [µM] |
| --- | --- | --- | --- | --- | --- | --- | --- | --- | --- | --- | --- | --- | --- |
| C#CCOc1cccc(-c2ccc(NC(=O)C3=C(C(=O)O)CCC3)c(F)c2)c1 | 56 | 6 | 1.4 | 290 |  |  |  |  |  |  |  |  |  |
| COc1cccc(-c2ccc(NC(=O)C3=C(C(=O)O)CCC3)c(F)c2)c1 [VIDOFLUDIMUS] |  |  |  |  | > 10 | 2.9 | 3.1 | > 10 | > 10 | > 10 | > 10 | > 10 | > 10 |
